Measurements taken from US20240148745A1, “COMPOUNDS FOR USE IN PROGRESSIVE MULTIPLE SCLEROSIS” (FONDAZIONE CENTRO SAN RAFFAELE, priority 2021, published 2024).
Entries after “also recorded” stand apart in the source; their conditions may differ.

Tests used:
[1] = tested on: mouse cortical and striatal neurons; experiment: Morphological integrity evaluation, NMDA 20 μM; format: cell-based; details: 1 μM, 24 h pre-treatment, NMDA 20 μM 24 h
Method: Morphological integrity evaluation. Mouse cortical and striatal neurons (14 DIV) cultured in MW96 plates were exposed to 1 uM to 60 uM concentrations of NMDA and relationship between the NMDA dose and fiber length was evaluated. […] Each of the compound was tested in quadruplicate. The fiber length was evaluated by MAP2 staining (please see the method described earlier).
42 compounds were screened to evaluate the morphological integrity of cortical and striatal neurons upon chronic (24 h) NMDA exposure at concentration of 20 μM with compounds pre-treatment (24 h) in preventive regimen (FIG. 17).

[2] = tested on: H9-derived human neural stem cells; experiment: Neurotoxic or regenerative effect screening (CellTiter-Glo); format: cell-based; details: 10 μM, three independent screenings
Method: H9-derived human neural stem cells (H9 hNSCs, Gibco) were cultured according to the manufacturer's instructions. Briefly, H9 hNSCs were expanded and subsequently differentiated in neurobasal medium, 2% B27, 1% Glutamax, and 1% penicillin/streptomycin, supplemented with 10 ng/ml BDNF (Peprotech), and 2 ng/ml recombinant human GDNF (Peprotech). After 7 days, 500 μM of db-cAMP (N6,2′-O-dibutyryladenosine 3′,5′-cyclic monophosphate, Sigma) was added.
The metabolic activity/viability of selected compounds (32 “Front Runners”+24 compounds from the “Short list”) was evaluated by CellTiter-Glo® Luminescent Cell Viability Assay. The primary screen of Front Runner List (32 compounds)+24 compounds from Short List) on H9-derived human neurons was performed at 10 μM concentration. The validation of hits from primary screen on H9-derived human neurons was performed at 10 μM concentration.
32 Front Runners were tested at 10 μM on H9-derived human neuronal cultures and viability was evaluated by CellTiter-Glo® Luminescent Cell Viability Assay.

[3] = tested on: rat oligodendrocyte progenitor CG4 line; experiment: Differentiation assay on rat oligodendrocyte progenitor CG4 line (HCS, mCherry+); format: cell-based; details: secondary screen of 49 selected compounds, 1 μM, 5 days
Outline: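 Double-reporter CG4 cells (mCherry in mature oligodendrocytes, EGFP in all lineage stages) proliferated 24 h, then given compounds at 1 μM for 5 days of differentiation, ⅔ medium changed at day 3. 9cis-RA as positive control, basal medium and 0.1% DMSO as negative; triplicates imaged by HCS, 35 fields/well.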

rat primary OPC cultures = experiment: Differentiation of rat primary OPC into MBP+ OLs; format: cell-based; details: 96 h, 4 days of differentiation, read-out: MBP+ differentiation (MBP+/SOX10+ OLs plus compounds / plus basal medium)
Outline: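 Primary rat OPCs were differentiated for 4 days with compounds at […], in triplicate over 3 independent experiments. Cells were immunolabelled for CNPase, MBP and SOX10, and MBP+ oligodendrocytes were counted by imaging. Results are fold increase in MBP+/SOX10+ cells over basal medium; 9-cis-RA ([…]) was the positive control.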

mouse cortical neurons = experiment: Morphological integrity evaluation, NMDA 8 μM (MAP2 neurite length and branching); format: cell-based; details: 3 h pre-treatment, NMDA 8 μM 24 h, Z>0.5 criteria
Outline: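 Mouse cortical neurons (14 DIV) pre-treated 3 h with compounds, then exposed 24 h to 8 μM NMDA; fixed, MAP2 immunostained with DAPI. Total neurite length and non-trunk branch number from 15 images/well, triplicates, converted to plate-based Z-scores; NAC positive, staurosporine and NMDA negative controls.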

[4] = tested on: human iPS-derived neuroprecursors; experiment: Differentiation of human iPS-derived neuroprecursors into MBP+ oligodendrocytes; format: cell-based; details: 1 μM in minimal medium, p<0.05
Text: NPC bearing a doxycycline inducible polycistronic construct containing SOX10, OLIG2 and NKX6.2^29 in a human safe harbor (passages 10 to 25) were singularized on day −3 by treatment with Accutase and plated on Matrigel-coated 12-well plates at a density of 100.000 cells per well in N2B27-medium containing equal parts of neurobasal (Invitrogen) and DMEM-F12 medium (Invitrogen) with 1:100 B27 supplement lacking vitamin A (Invitrogen), 1:200 N2 supplement (Invitrogen), 1% penicillin/streptomycin/glutamine (PSG), 3 μM CHIR99021 (Axon Medchem), 150 μM ascorbic acid and 0.5 μM SAG. The next day medium was changed to N2B27-medium containing 1 μg/ml doxycycline. On DO medium was changed to glial-induction medium (GIM) consisting of DMEM-F12 with 1:100 B27 supplement lacking vitamin A, 1:200 N2 supplement, 1% PSG, 1 μM SAG, 10 ng/mL NT3 (Peprotech), 10 ng/mL IGF-I (Peprotech), 200 μM AA (Sigma), 1:1000 Trace Elements B (Corning). For full medium conditions 10 ng/ml T3 was added. On Day 2 medium was changed to glial-differentiation medium (GDM) comprising DMEM-F12 with 1:100 B27 supplement lacking vitamin A, 1:200 N2 supplement, 1% PSG, 100 μM dbCAMP (Sigma), 100 μM AA, 1:1000. For full medium conditions 60 ng/mL T3, Trace Elements B 10 ng/mL, IGF-I, 10 ng/mL and NT3 were added to the culture. GDM was changed every other day. On day 7 cells were detached by treatment with Accutase and re-plated on laminin coated 48-well plates at densities of 10.000-12.000 cells per well. After 24 h cells were treated in minimal medium with either vehicle alone [0.01% (vol/vol) DMSO] as a negative control, 60 ng/mL T3 as a positive control, or with a drug candidate dissolved in DMSO. Medium was changed every other day. On D16 doxycycline was removed from the medium. Cells were fixed on D21 and analyzed via immunocytochemistry.
Immunocytochemistry. Cells were initially fixed with 4% PFA treatment for 20 min, RT. Following three washes with PBS cells were incubated with blocking solution containing 5% normal goat serum (NGS) and 5% FCS (fetal calf serum) in PBS for 30 min at RT to prevent unspecific binding of the antibodies. To detect intracellular antigens cells were permeabilized by adding 0.5% Triton X-100 to the Blocking-solution. Cells treated with Triton X-100 were washed three times with PBS each time for 5 min at RT. Primary antibodies (rat anti-MBP,1:50, Abcam, AB7349) were applied overnight, 4° C., in blocking solution. The next day cells were washed 3 times with PBS at RT, and afterwards incubated with secondary antibodies (AF488 Alexa Fluor anti-rat (goat), 1:500, Jackson/Dianova, #112-545-167) diluted in PBS for 1 h at RT. Secondary antibodies were subsequently removed by washing 3 times with PBS. Afterwards PBS containing a Dapi staining for nuclei was added for 5 minutes and afterwards washed off with PBS. Cells were kept at 4° C. until imaging.
Imaging and evaluation. From each condition (triplicates) 20-30 pictures were taken randomly chosen by the Dapi-signal. Cell numbers were determined by using an ImageJ Macro to count the nuclei whereas MBP positive cells were subsequently counted manually in black and white images.
The effect on oligodendroglial differentiation of 32 compounds (“Front runners”) was tested. Induced pluripotent stem cells in which the transcription factors SOX10, OLIG2, NKX6.2 were inserted in a doxycycline inducible manner into a human safe harbor were differentiated into neural stem cells. Differentiation into oligodendrocytes was induced by addition of doxycycline. Cells were cultured either in a minimal medium (MM) (negative control) or in MM with the different compounds at a concentration of 1 μM. Addition of T3 to the minimal medium served as a positive control.

[5] = tested on: murine cortical neurons (14 DIV); experiment: NMDA-mediated neuroprotective assay (CCK8 viability); format: cell-based, mouse; details: 1 μM, 3 h pre-treatment, NMDA 8 μM 24 h, p<0.05
Outline: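 Primary murine cortical neurons pre-treated with 1 μM compound for 3 or 24 h, then exposed to 8 μM NMDA for 24 h. Viability read by CCK-8 and expressed relative to NMDA-only control; vehicle 0.02% DMSO.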

SMILES	morphological integrity (neurite length) of cortical and striatal neurons [1]	cumulative Z-scores of ATP production/viability [2]	CG4 differentiation compared with 9cis-RA positive control [3]	fold induction at 1 µM (rat primary OPC cultures)	also measured
COc1ccc2c(OCc3nnc4ccc(-c5ccccc5)nn34)ccnc2c1 [AMG-208]	selected for confirmation	–	–	–	–
C=CCc1ccccc1OCC(O)CNC(C)C (stereo not shown) [Alprenolol]	–	potential hits	promoting differentiation significantly higher than 9cis-RA positive control	> 1.6	–
O=c1[nH]c2cccc(N3CCN(Cc4cccc(-c5ccccc5)c4)CC3)c2o1 [Bifeprunox]	selected for confirmation	–	–	–	preservation of neurite length and network integrity (branching) (mouse cortical neurons): preserved both neurite length and the network integrity (branching); preservation of neurite length and network integrity (branching) (mouse cortical neurons; listed as BIFEPRUNOX): two best-performing compounds
COc1ccc(Cl)cc1[C@]1(F)C(=O)Nc2cc(C(F)(F)F)ccc21 [Flindokalner]	selected for confirmation	–	–	–	–
Cc1c(Cn2c(C)nc3c(C(=O)O)cc(N4CCOCC4)cc32)cccc1C(F)(F)F [GSK-2636771]	selected for confirmation	–	–	–	–
COc1ccc(S(=O)(=O)n2cc(CCC(=O)O)c3cc(OC)ccc32)cc1 [Indeglitazar]	–	potential hits	promoting differentiation significantly higher than 9cis-RA positive control	> 1.6	differentiation into MBP+ oligodendrocytes [4]: promote significantly (p<0.05) the differentiation into MBP+ oligodendrocytes
Cc1ncc(OC[C@@]2(c3cccc(F)c3)C[C@H]2C(=O)Nc2ccc(F)cn2)c(C)n1 [Lemborexant]	–	potential hits	promoting differentiation significantly higher than 9cis-RA positive control	> 1.6	–
O=C(Oc1ccc(Br)cc1)N1CCN2CCC1CC2 [SSR180711]	selected for confirmation	–	–	–	preservation of neurite length and network integrity (branching) (mouse cortical neurons): preserved both neurite length and the network integrity (branching); also recorded: two best-performing compounds; neuroprotection of viability/metabolic activity against NMDA [5]: hit compounds
C[C@@H](C(=O)O)c1ccc(-c2ccccc2)c(F)c1 [Tarenflurbil]	selected for confirmation	–	–	–	neuroprotection of viability/metabolic activity against NMDA [5]: trend versus significance
CCC(COC(=O)c1cc(OC)c(OC)c(OC)c1)(c1ccccc1)N(C)C (stereo not shown) [Trimebutine]	hit-compound in both cortical and striatal neuronal assays	–	–	–	–
